In paper PMC2868066 (Biochemistry, 2010):
Values after ≈ are worked out from the molar mass of the structure shown. Peptide text beside a SMILES is read from it.

Assays:
S. aureus ATCC 29213 = format: cell-based; conditions: ATCC 29213, 18 h
E. coli K12 = format: cell-based; conditions: K12, 18 h
S. aureus / E. coli = conditions: cited from earlier work

Compound | MIC (S. aureus ATCC 29213) | MIC (E. coli K12) | MIC S. aureus/MIC E. coli (S. aureus / E. coli)
CC[C@H](C)[C@H](NC(=O)[C@H](CCCCN)NC(=O)CNC(=O)[C@H](C)NC(=O)[C@@H](NC(=O)[C@H](CCCCN)NC(=O)[C@H](C)NC(=O)[C@@H](NC(=O)[C@H](CCCCN)NC(=O)CNC(=O)[C@H](C)NC(=O)[C@@H](NC(=O)[C@H](CCCCN)NC(=O)[C@H](C)NC(=O)[C@@H](NC(=O)[C@H](CCCCN)NC(=O)CNC(=O)[C@H](C)NC(=O)[C@@H](NC(=O)[C@@H](N)CCCCN)[C@@H](C)CC)[C@@H](C)CC)[C@@H](C)CC)[C@@H](C)CC)[C@@H](C)CC)C(=O)N[C@@H](C)C(N)=O [MSI-103] (H-KIAGKIAKIAGKIAKIAGKIA-NH2) | 25 mg/L (≈ 12.1 µM) | 1.6 mg/L (≈ 0.776 µM) | 
Cateslytin |  |  | >3
CC[C@H](C)[C@H](NC(=O)CN)C(=O)NCC(=O)N[C@@H](CCCCN)C(=O)N[C@@H](Cc1ccccc1)C(=O)N[C@@H](CC(C)C)C(=O)N[C@@H](CCCCN)C(=O)N[C@@H](CCCCN)C(=O)N[C@@H](C)C(=O)N[C@@H](CCCCN)C(=O)N[C@@H](CCCCN)C(=O)N[C@@H](Cc1ccccc1)C(=O)NCC(=O)N[C@@H](CCCCN)C(=O)N[C@@H](C)C(=O)N[C@@H](Cc1ccccc1)C(=O)N[C@H](C(=O)N[C@@H](CCCCN)C(=O)N[C@H](C(=O)N[C@@H](CC(C)C)C(=O)N[C@@H](CCCCN)C(=O)N[C@@H](CCCCN)C(N)=O)[C@@H](C)CC)C(C)C [MSI-78] (H-GIGKFLKKAKKFGKAFVKILKK-NH2) | 12.5 mg/L (≈ 5.05 µM) |  | 
